Data as given in patent US12291721B2, “Activated lymphocytes comprising cytokine-induced killer cells and preparation method therefor” (GREENCROSSCELL, priority 2019, dated 2025).

Experiments:
[1] = system: human prostate cancer (PC-3); assay: Anticancer effects on human prostate cancer (PC-3) xenograft; assay type: in vivo, nude mice
Description: Nude mice were purchased and stored in a specific pathogen free (SPF) room of the Korea Research Institute of Bioscience and Biotechnology, and allowed to acclimate for 1 week before use. Human prostate cancer, that is, PC-3 cells were injected subcutaneously into each nude mouse at a concentration of 9×10^6 cells. […] As a positive control group, adriamycin was administered intravenously at a concentration of 2 mg/kg once a week for total 4 times.
(§1) Standard deviations (SDs) and p-values of all test results were calculated using ANOVA (Prisim, GraphPad software, USA) and student's t-test.

[2] = system: human colon cancer (SW620); assay: Anticancer effects on human colon cancer (SW620) xenograft; assay type: in vivo, nude mice
Description: Nude mice were purchased and stored in a specific pathogen free (SPF) room of the Korea Research Institute of Bioscience and Biotechnology, and allowed to acclimate for 1 week before use. Human colon cancer, that is, SW620 cells were injected subcutaneously into each nude mouse at a concentration of 6×10^6 cells. […] As a positive control group, adriamycin was administered intravenously at a concentration of 2 mg/kg once a week for total 4 times.
as §1

[3] = system: human pancreatic cancer (AsPC-1); assay: Anticancer effects on human pancreatic cancer (AsPC-1) xenograft; assay type: in vivo, nude mice
Description: Nude mice were purchased and stored in a specific pathogen free (SPF) room of the Korea Research Institute of Bioscience and Biotechnology, and allowed to acclimate for 1 week before use. Human pancreatic cancer, that is, AsPC1 cells were injected subcutaneously into each nude mouse at a concentration of 9×10^6 cells. […] As a positive control group, adriamycin was administered intravenously at a concentration of 2 mg/kg once a week for total 4 times.
as §1

[4] = system: human melanoma cancer (LOX-IMV1); assay: Anticancer effects on human melanoma cancer (LOX-IMV1) xenograft
Description: Nude mice were purchased and stored in a specific pathogen free (SPF) room of the Korea Research Institute of Bioscience and Biotechnology, and allowed to acclimate for 1 week before use. Human melanoma cancer, that is, LOX-IMV1 cells were injected subcutaneously into each nude mouse at a concentration of 1.5×10^6 cells. […] As a positive control group, adriamycin was administered intravenously at a concentration of 2 mg/kg once a week for total 3 times.
as §1

[5] = system: human renal cancer (ACHN); assay: Anticancer effects on human renal cancer (ACHN) xenograft
Description: Nude mice were purchased and stored in a specific pathogen free (SPF) room of the Korea Research Institute of Bioscience and Biotechnology, and allowed to acclimate for 1 week before use. Human renal cancer, that is, ACHN cells were injected subcutaneously into each nude mouse at a concentration of 1.2×10^7 cells. […] As a positive control group, adriamycin was administered intravenously at a concentration of 2 mg/kg once a week for total 4 times.
Standard deviations (SDs) and p-values of all test results were calculated using ANOVA (Prisim. GraphPad software, USA) and student's t-test.

[6] = adriamycin 2 mg/kg i.v., day 22
[7] = adriamycin 2 mg/kg i.v., day 25
[8] = day 25 compared with Day-1 (100%), adriamycin 2 mg/kg
[9] = adriamycin 2 mg/kg i.v., day 15
[10] = adriamycin 2 mg/kg i.v., day 28

## COc1cccc2c1C(=O)c1c(O)c3c(c(O)c1C2=O)C[C@@](O)(C(=O)CO)C[C@@H]3O[C@H]1C[C@H](N)[C@H](O)[C@H](C)O1 [adriamycin]
[1]; [6]
  growth inhibition (tumor size): 40%
  growth inhibition (tumor weight): 40%
  tumor size: 225±59 mm^3
  tumor weight: 808 ± 156 mg
[1]; adriamycin (2 mg/kg), day 22, PC-3
  Tumor growth rate (%) compared to the control group: 60 ± 12%
[1]; day 22 compared with Day-1 (100%), adriamycin 2 mg/kg
  body weight change: 102%
[2]; [7]
  growth inhibition (tumor size): 48%
  growth inhibition (tumor weight): 49%
  tumor size: 142±97 mm^3
  tumor weight: 834 ± 306 mg
[2]; adriamycin (2 mg/kg), day 25, SW-620
  Tumor growth rate (%) compared to the control group: 54 ± 28%
[2]; [8]
  body weight change: 114%
[3]; [7]
  growth inhibition (tumor size): 48%
  growth inhibition (tumor weight): 44%
  tumor size: 130±28 mm^3
  tumor weight: 473 ± 64 mg
[3]; adriamycin (2 mg/kg), day 25, AsPC-1
  Tumor growth rate (%) compared to the control group: 55 ± 8%
[3]; [8]
  body weight change: 125%
[4]; [9]
  growth inhibition (tumor size): 72%
  growth inhibition (tumor weight): 70%
  tumor weight: 496 ± 306 mg
[4]; adriamycin (2 mg/kg), day 15, LOX-IMVI
  Tumor growth rate (%) compared to the control group: 30 ± 18%
[4]; day 15 compared with Day-1, adriamycin 2 mg/kg
  body weight change: 122%
[5]; [10]
  growth inhibition (tumor size): 40%
  growth inhibition (tumor weight): 37%
  tumor size: 192±44 mm^3
  tumor weight: 409 ± 41 mg
[5]; adriamycin (2 mg/kg), day 28, ACHN
  Tumor growth rate (%) compared to the control group: 63 ± 6%
[5]; day 28 compared with Day-1 (100%), adriamycin 2 mg/kg
  body weight change: 95%
